Data published in paper PMC4604124, “In Vitro Characterization of the Pharmacological Properties of the Anti-Cancer Chelator, Bp4eT, and Its Phase I Metabolites” (PLoS ONE, 2015).
“And” between values parts separate entries of the source, which are not always exact repeats. Identical values can stand only once. Like-named read-outs stand apart in the source and are kept apart here.

Key:
[1] = system: HL-60 human promyelocytic leukemia cells; assay: MTT cytotoxicity assay, HL-60 cells; type: cell-based; conditions: for IC50: MTT, read-out: IC50
Experimental: (§1) For cytotoxicity experiments, cancer cells were seeded at a density of 5,000 (MCF-7), 10,000 (HL-60) or 2,000 cells/well (HCT116 and A549) in 96-well plates (TPP) for 24 h/37°C prior to the addition of examined agents. The non-cancerous cells, 3T3 and H9c2 cells, were cultured for 24 h/37°C in 96-well plates at a density of 10,000 cells/well, the medium was then changed to serum- and pyruvate-free DMEM (Sigma-Aldrich) and incubated with the cells for another 24 h/37°C. The cytotoxic effects of Bp4eT and its metabolites were studied at different concentrations after a 72 h/37°C incubation. In order to aid the dissolution of the lipophilic ligands, 0.1% dimethyl sulfoxide (v/v) (DMSO; Sigma-Aldrich) was present in the culture medium of all groups. At this concentration, DMSO had no effect on cellular proliferation or viability.
(§2) The viability of cells were determined using an MTT assay (Sigma-Aldrich) according to previously established methods. The optical density of soluble MTT was measured at λ = 570 nm, subtracting the λ = 690 nm background using a Tecan Infinite 200M plate reader (Tecan Group, Männedorf, Switzerland). The viability or proliferation of experimental groups was expressed as a percentage of the untreated controls (100%).
(§3) SigmaStat for Windows 3.5 (Systat Software, San Jose, CA, USA) statistical software package was utilized to analyze results. The data are expressed as the mean ± SD of a given number of experiments. Statistical significance was determined using a one-way ANOVA with a Bonferroni post-hoc test or Student’s t-test. The results were considered to be statistically significant when p < 0.05. The IC50 values were calculated using CalcuSyn 2.0 software (Biosoft, Cambridge, UK). Cell cycle analysis was evaluated using MultiCycle AV Software (Phoenix Flow Systems, San Diego, CA, USA).

[2] = system: labile iron pool of MCF-7 cells; assay: Calcein-AM assay, access to the labile iron pool; type: cell-based, human; set-up: Calcein fluorescence: unit not given here; conditions: 10 μM; for Calcein fluorescence: mean (průměr); for Chelation efficacy: fluorescence of free calcein at t = 600 s as percentage of Bp4eT: MCF-7, mean of 6 experiments
Experimental: These experiments were performed according to Glickstein et al. with slight modifications. The MCF-7 cells were seeded in 96-well plates (10,000 cells/well) and allowed to adhere for 24 h/37°C. Cells were loaded with iron using the cellular iron donor, ferric ammonium citrate (530 μg/mL), 24 h prior to the experiment, and then washed. To prevent potential interference, especially with regard to various trace elements, the medium was replaced with ADS buffer (prepared using Millipore water supplemented with 116 mM NaCl, 5.3 mM KCl, 1 mM CaCl2, 1.2 mM MgSO4, 1.13 mM NaH2PO4, 5 mM D-glucose, and 20 mM HEPES, pH 7.4). Cells were then loaded with 2 μM of the cell-permeable calcein green acetoxymethyl ester (calcein-AM; Molecular Probes, Oregon, USA) for 30 min/37°C and washed. Cellular esterases cleave the acetoxymethyl groups to form the cell membrane-impermeable compound, calcein green. The fluorescence of calcein green is quenched upon binding iron. The intracellular fluorescence (λex = 488 nm; λem = 530 nm) of calcein green was then followed as a function of time (10 min after the addition of 10 μM Bp4eT or its metabolites) at 37°C using the Tecan Infinite 200M plate reader. The iron chelation efficacy of the metabolites in cells was expressed as a percentage of the efficacy of the parent chelator, Bp4eT (100%).

[3] = system: cancer cells (HL-60, MCF-7, HCT116, A549) and non-cancerous cells (H9c2, 3T3); assay: MTT cytotoxicity assay, summary over the cell line panel; type: cell-based; conditions: HL-60, MCF-7, HCT116, A549; 72 h; read-out: IC50, range over cancer cells
Experimental: as §1, §2, §3

CCN=CNN=C(c1ccccc1)c1ccccn1 [Bp4eA, N ^3-ethyl-N ^1-[phenyl(pyridin-2-yl)methylene]formamidrazone]
Therapeutic index, IC50 non-cancerous cells / IC50 neoplastic cells ([1]; 3T3/HL-60): 19.7 | Therapeutic index, IC50 non-cancerous cells / IC50 neoplastic cells ([1]; H9c2/HL-60): 8.0 | MTT, relative to control (0 = 100) ([1]; HL-60, 10 000 b/j, 3 μM, průměr (mean), sheet Bp4eA): 96.31 | MTT, relative to control (0 = 100) ([1]; HL-60, 10 000 b/j, 3 μM, single experiment (date), sheet Bp4eA): 98.9707 and 95.9296 and 99.8753 and 90.4839 | MTT, relative to control (0 = 100) ([1]; HL-60, 10 000 b/j, 10 μM, průměr (mean), sheet Bp4eA): 96.62 | MTT, relative to control (0 = 100) ([1]; HL-60, 10 000 b/j, 10 μM, single experiment (date), sheet Bp4eA): 97.2125 and 99.0002 and 94.4459 and 95.8253 | MTT, relative to control (0 = 100) ([1]; HL-60, 10 000 b/j, 30 μM, průměr (mean), sheet Bp4eA): 83.43 | MTT, relative to control (0 = 100) ([1]; HL-60, 10 000 b/j, 30 μM, single experiment (date), sheet Bp4eA): 80.8819 and 83.0208 and 86.8317 and 82.995 | MTT, relative to control (0 = 100) ([1]; HL-60, 10 000 b/j, 50 μM, průměr (mean), sheet Bp4eA): 62.90 | MTT, relative to control (0 = 100) ([1]; HL-60, 10 000 b/j, 50 μM, single experiment (date), sheet Bp4eA): 62.3054 and 62.5036 and 62.1604 and 64.6299 | MTT, relative to control (0 = 100) ([1]; HL-60, 10 000 b/j, 80 μM, průměr (mean), sheet Bp4eA): 16.51 | MTT, relative to control (0 = 100) ([1]; HL-60, 10 000 b/j, 100 μM, průměr (mean), sheet Bp4eA): 1.77 | MTT, relative to control (0 = 100) ([1]; HL-60, 10 000 b/j, 300 μM, průměr (mean), sheet Bp4eA): 1.66 | IC50 ([1]; HL-60, 10 000 b/j, single experiment (date), sheet Bp4eA): 51 µM and 54.1 µM and 55.3 µM | IC50 ([1]; Homo sapiens, HL-60, 72 h, HL-60, 72 h/37°C, mean ± SD, n ≥ 4): 52.1 ± 3.3 µM | IC50 ([1]; Homo sapiens, HL-60, HL-60, 10 000 b/j, průměr (mean), sheet Bp4eA): 52.1 µM | IC50 ([1]; Homo sapiens, HL-60, HL-60, 10 000 b/j, single experiment (date), sheet Bp4eA): 47.9 µM | Calcein fluorescence ([2]; 30 sec): 16.628 | Calcein fluorescence ([2]; 60 sec): 5.072 | Calcein fluorescence ([2]; 90 sec): 8.535 | Calcein fluorescence ([2]; 120 sec): 16.564 | Calcein fluorescence ([2]; 300 sec): 13.356 | Calcein fluorescence ([2]; 600 sec): 12.951 | Chelation efficacy: fluorescence of free calcein at t = 600 s as percentage of Bp4eT [2]: 5.9% and 5.872% | IC50 [3]: 52 to 207 µM

CCNC(=O)NN=C(c1ccccc1)c1ccccn1 [Z-Bp4eS, 2-benzoylpyridine 4-ethylsemicarbazone]
Therapeutic index, IC50 non-cancerous cells / IC50 neoplastic cells ([1]; 3T3/HL-60): >21.6 | Therapeutic index, IC50 non-cancerous cells / IC50 neoplastic cells ([1]; H9c2/HL-60): 7.4 | IC50 ([1]; HL-60, 72 h/37°C, mean ± SD, n ≥ 4): 46.2 ± 1.5 µM | MTT, relative to control (0 = 100) ([1]; HL-60, 10 000 b/j, 3 μM, průměr (mean), sheet Z-Bp4eS): 96.55 | MTT, relative to control (0 = 100) ([1]; HL-60, 10 000 b/j, 3 μM, single experiment (date), sheet Z-Bp4eS): 99.8024 and 101.089 and 96.0475 and 94.6794 and 91.1123 | MTT, relative to control (0 = 100) ([1]; HL-60, 10 000 b/j, 10 μM, průměr (mean), sheet Z-Bp4eS): 98.03 | MTT, relative to control (0 = 100) ([1]; HL-60, 10 000 b/j, 10 μM, single experiment (date), sheet Z-Bp4eS): 97.8586 and 97.7431 and 101.779 and 97.3762 and 95.3935 | MTT, relative to control (0 = 100) ([1]; HL-60, 10 000 b/j, 30 μM, průměr (mean), sheet Z-Bp4eS): 90.77 | MTT, relative to control (0 = 100) ([1]; HL-60, 10 000 b/j, 30 μM, single experiment (date), sheet Z-Bp4eS): 95.7321 and 90.5946 and 90.8492 and 85.9082 | MTT, relative to control (0 = 100) ([1]; HL-60, 10 000 b/j, 40 μM, průměr (mean), sheet Z-Bp4eS): 82.14 | MTT, relative to control (0 = 100) ([1]; HL-60, 10 000 b/j, 40 μM, single experiment (date), sheet Z-Bp4eS): 82.3316 and 84.0304 and 91.7648 and 77.576 and 75.0054 | MTT, relative to control (0 = 100) ([1]; HL-60, 10 000 b/j, 50 μM, průměr (mean), sheet Z-Bp4eS): 40.92 | MTT, relative to control (0 = 100) ([1]; HL-60, 10 000 b/j, 50 μM, single experiment (date), sheet Z-Bp4eS): 42.5442 and 42.5088 and 37.382 and 41.2548 | MTT, relative to control (0 = 100) ([1]; HL-60, 10 000 b/j, 80 μM, průměr (mean), sheet Z-Bp4eS): 2.08 | MTT, relative to control (0 = 100) ([1]; HL-60, 10 000 b/j, 100 μM, průměr (mean), sheet Z-Bp4eS): 2.48 | MTT, relative to control (0 = 100) ([1]; HL-60, 10 000 b/j, 300 μM, průměr (mean), sheet Z-Bp4eS): 2.72 | MTT, relative to control (0 = 100) ([1]; HL-60, 10 000 b/j, 300 μM, single experiment (date), sheet Z-Bp4eS): 3.195 and 2.8028 and 2.136 and 2.734 | IC50 ([1]; HL-60, 10 000 b/j, single experiment (date), sheet Z-Bp4eS): 46.2 µM and 48.3 µM and 45.5 µM | IC50 ([1]; Homo sapiens, HL-60, HL-60, 10 000 b/j, průměr (mean), sheet Z-Bp4eS): 46.2 µM | IC50 ([1]; Homo sapiens, HL-60, HL-60, 10 000 b/j, single experiment (date), sheet Z-Bp4eS): 44.9 µM | Calcein fluorescence ([2]; 30 sec): 11.525 | Calcein fluorescence ([2]; 60 sec): 8.244 | Calcein fluorescence ([2]; 90 sec): 15.042 | Calcein fluorescence ([2]; 120 sec): 10.528 | Calcein fluorescence ([2]; 300 sec): 1.225 | Calcein fluorescence ([2]; 600 sec): 2.196 | Chelation efficacy: fluorescence of free calcein at t = 600 s as percentage of Bp4eT [2]: 0.9956% | Fluorescence of free calcein at 600 s as percentage of Bp4eT ([2]; MCF-7, single experiments): 0% and 5.974%
